The results in this text go back to patent publication US5026729A, “Lipoxygenase inhibiting compounds” (Abbott Laboratories, priority 1989, dated 1991).

One data set addresses T1, 5-Lipoxygenase (Homo sapiens, UniProt P09917).
T1 sequence (P09917 1-674): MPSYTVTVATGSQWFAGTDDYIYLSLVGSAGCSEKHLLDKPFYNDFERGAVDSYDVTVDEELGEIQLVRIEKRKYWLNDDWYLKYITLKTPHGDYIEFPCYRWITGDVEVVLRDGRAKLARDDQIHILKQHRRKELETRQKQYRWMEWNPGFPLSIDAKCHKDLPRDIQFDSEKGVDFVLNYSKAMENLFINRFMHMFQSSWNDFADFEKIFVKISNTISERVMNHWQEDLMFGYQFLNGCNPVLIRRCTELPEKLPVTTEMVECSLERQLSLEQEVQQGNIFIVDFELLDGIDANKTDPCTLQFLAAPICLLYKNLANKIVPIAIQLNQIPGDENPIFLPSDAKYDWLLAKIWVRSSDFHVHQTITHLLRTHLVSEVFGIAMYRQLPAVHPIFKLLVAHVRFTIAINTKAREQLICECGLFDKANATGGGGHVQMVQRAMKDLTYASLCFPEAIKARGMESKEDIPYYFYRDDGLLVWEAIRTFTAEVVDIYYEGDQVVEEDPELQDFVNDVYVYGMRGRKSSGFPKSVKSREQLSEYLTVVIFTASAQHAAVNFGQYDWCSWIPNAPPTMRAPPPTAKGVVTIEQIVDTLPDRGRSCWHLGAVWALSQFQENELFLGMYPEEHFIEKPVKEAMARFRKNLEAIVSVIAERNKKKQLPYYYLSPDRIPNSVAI
Nature of the data set: 5-Lipoxygenase inhibitory activity in vitro. In kind it is biochemical.

Data set [1] in a line: Determination of plasma half-life after intravenous injection in rats. The format is in vivo. To be noted: 1.7 mL/kg solution via jugular cannula, HPLC, elimination phase; for half-life: rat, plasma, read-out: Plasma Halflife (converted). The method, then: Rats were injected intravenously with a 1.7 mL/kg solution of test compound through a jugular cannula. Multiple blood samples were collected from the lateral tail vein using heparinized capillary tubes. Plasma was obtained by centrifugation and precipitation of proteins by 2 volumes of methanol was followed by centrifugation at 12000×G for 10 min. The supernatant was analyzed by HPLC using a C18 Adsorbosphere 7μm column and eluted with a mobile phase of varying amounts of acetonitrile and aqueous 8mM triethylamine acetate and 10mM acetohydroxamic acid with a flow rate of about 1mL/min and detection by UV spectroscopy. The quantitation of compounds was calculated using external standards. The halflife of a test compound was determined from the elimination phase of a graph of the log of the plasma concentration versus time.

Structures are written as SMILES.

The IC50 is the concentration at which inhibition is half-maximal. A low value points to higher potency. As for `Cc1cc(C(C)N(O)C(N)=O)ccc1OCc1ccccc1` (stereo not drawn) [A], the IC50 on 5-Lipoxygenase was 100 nM. Also, the half-life in data set [1] is 2.7 h.
One may read the inhibition as the share of the control response that was lost under treatment. As to `CC(=O)N(O)C(C)c1ccc(OCc2ccc(Cl)cc2)cc1` (stereo not drawn) [E], the inhibition at 0.78 µM at 5-Lipoxygenase (0.78 μM, read-out: 5-Lipoxygenase Inhibitory Activity (percent inhibition)) stood at 91%. The half-life in data set [1] was 1.4 h.
For `Cc1cc(C(C)N(O)C(N)=O)ccc1OC(C)c1ccccc1` (stereo not drawn) [Example 3, N-hydroxy-N-[1-(4-(1-phenylethoxy)-3-methylphenyl)ethyl]urea], 200 nM corresponded to half-maximal inhibition against 5-Lipoxygenase (IC50). Further, the half-life in data set [1] is 5.3 h.
On to `Cc1cc(OC(C)c2ccccc2)ccc1C(C)N(O)C(N)=O` (stereo not drawn) [Example 4, N-hydroxy-N-[1-(4-(1-phenylethoxy)-2-methylphenyl)ethyl]urea], for which the IC50 against 5-Lipoxygenase worked out at 50 nM. Besides, in data set [1], the half-life was 1.2 h.
In the same order, the values of `CC(=O)N(O)C(C)c1ccc(OC(C)c2ccc(F)cc2)cc1` (stereo not drawn) [Example 31, N-Hydroxy-N-(1-(4-(1-(4-fluorophenyl)ethoxy)-phenyl)ethyl]acetamide] are 500 nM and 12.4 h.
`CC(Oc1ccc(C(C)N(O)C(N)=O)cc1)c1ccc(Cl)cc1` (stereo not drawn) [Example 34, N-hydroxy-N-[1-(4-(1-(4-chlorophenyl)ethoxy)-phenyl)ethyl]urea] showed an IC50 at 5-Lipoxygenase of 200 nM. For the same compound, the half-life in data set [1] is 7.8 h.
For the compound `Cc1cc(OCc2ccccc2)ccc1C(C)N(O)C(N)=O` (stereo not drawn) [B], the IC50 on 5-Lipoxygenase was 400 nM. Moreover, in data set [1], the half-life is 0.6 h.
`CC(Oc1ccc(C(C)N(O)C(N)=O)cc1)c1ccc(F)cc1` (stereo not drawn) [Example 32] returned an IC50 against 5-Lipoxygenase of 300 nM. Further, the half-life in data set [1] is 7.2 h.
As for `CC(=O)N(O)C(C)c1ccc(OC(C)c2ccc(Cl)cc2)cc1` (stereo not drawn) [Example 33], the IC50 on 5-Lipoxygenase stood at 600 nM. The half-life in data set [1] is 5.7 h.
The compound `CC(c1ccc(OCc2ccc(F)cc2)cc1)N(O)C(N)=O` (stereo not drawn) [D] displayed an IC50 against 5-Lipoxygenase of 400 nM. For the same compound, the “Plasma Halflife” value in data set [1] is “biphasic”.
On to `CC(=O)N(O)C(C)c1ccc(OCc2ccc(F)cc2)cc1` (stereo not drawn) [C], for which it took 500 nM to reach half-maximal inhibition against 5-Lipoxygenase (IC50). The half-life in data set [1] was 5.6 h.
As to `CC(c1ccc(OCc2ccc(Cl)cc2)cc1)N(O)C(N)=O` (stereo not drawn) [F], the inhibition at 0.39 µM on 5-Lipoxygenase (0.39 μM, read-out: 5-Lipoxygenase Inhibitory Activity (percent inhibition)) came to 72%. Besides, in data set [1], the half-life was 4.6 h.
